ChEMBL document CHEMBL1127131, “Penems containing amino acid derived substituents at C-2” (1993)
Converted amounts (≈) assume the structure as drawn.

Assays:
Salmonella = experiment: Minimum inhibitory concentration required for antibacterial activity against Salmonella; format: functional
Serratia [1] = experiment: Minimum inhibitory concentration for antibacterial activity against Serratia; format: functional
Escherichia coli = experiment: Minimum inhibitory concentration required for antibacterial activity against Escherichia coli; format: functional
Klebsiella = experiment: Minimum inhibitory concentration required for antibacterial activity against Klebsiella; format: functional
Providencia = experiment: Minimum inhibitory concentration required for antibacterial activity against Providencia; format: functional
[2] = Gram-negative geometric mean MIC of antibacterial activity; format: functional
[3] = Gram-positive geometric mean MIC for antibacterial activity (ug/mL); format: functional
Staphylococcus = experiment: Minimum inhibitory concentration required for antibacterial activity against Staphylococcus; format: functional
Morganella = experiment: Minimum inhibitory concentration required for antibacterial activity against Morganella; format: functional
Bacillus subtilis = experiment: Minimum inhibitory concentration required for antibacterial activity against Bacillus subtilis; format: functional
Micrococcus luteus = experiment: Minimum inhibitory concentration required for antibacterial activity against Sarcina luteus; format: functional, sarcinea luteus
Enterobacter = experiment: Minimum inhibitory concentration required for antibacterial activity against Enterobacter; format: functional
Enterococcus faecalis = experiment: Minimum inhibitory required for antibacterial activity against Streptococcus faecalis; format: functional
Serratia [4] = experiment: Minimum inhibitory concentration required for antibacterial activity against Serratia; format: functional
[5] = Gram-positive geometric mean MIC of antibacterial activity; format: functional
[6] = Gram-positive vitro for its antibacterial activity of Geometric Mean MIC (ug/mL); format: functional

MIC (Salmonella) | MIC (Serratia [1]) | MIC (Escherichia coli) | MIC (Klebsiella) | MIC (Providencia) | MIC [2] | MIC [3] | MIC (Staphylococcus) | MIC (Morganella) | MIC (Bacillus subtilis) | MIC (Micrococcus luteus) | MIC (Enterobacter) | MIC (Enterococcus faecalis) | MIC (Serratia [4]) | MIC [5] | MIC [6] | SMILES
0.25 µg/mL (≈ 0.718 µM) | 1.68 µg/mL (≈ 4.82 µM) | 0.284 µg/mL (≈ 0.815 µM) | 0.308 µg/mL (≈ 0.884 µM) | 2 µg/mL (≈ 5.74 µM) | 0.51 µg/mL | 1.1 µg/mL (≈ 3.16 µM) | 0.852 µg/mL (≈ 2.45 µM) | 2 µg/mL (≈ 5.74 µM) | 0.25 µg/mL (≈ 0.718 µM) | 0.5 µg/mL (≈ 1.44 µM) | 0.63 µg/mL (≈ 1.81 µM) | 16 µg/mL (≈ 45.9 µM) | – | – | – | C[C@@H](O)[C@H]1C(=O)N2C(C(=O)O)=C(CSC[C@@H](N)C(=O)O)S[C@H]12
0.397 µg/mL (≈ 1.25 µM) | – | 0.441 µg/mL (≈ 1.38 µM) | 0.5 µg/mL (≈ 1.57 µM) | 5.28 µg/mL (≈ 16.6 µM) | 0.13 µg/mL | 0.88 µg/mL (≈ 2.76 µM) | 0.07 µg/mL (≈ 0.22 µM) | 4 µg/mL (≈ 12.6 µM) | 0.125 µg/mL (≈ 0.393 µM) | 0.125 µg/mL (≈ 0.393 µM) | 1 µg/mL (≈ 3.14 µM) | 8.02 µg/mL (≈ 25.2 µM) | 2.83 µg/mL (≈ 8.89 µM) | – | – | CSCC[C@@H](N)C1=C(C(=O)O)N2C(=O)[C@H]([C@@H](C)O)[C@H]2S1
0.16 µg/mL (≈ 0.479 µM) | – | 0.25 µg/mL (≈ 0.748 µM) | 0.17 µg/mL (≈ 0.508 µM) | 5.66 µg/mL (≈ 16.9 µM) | 0.49 µg/mL | – | 1.82 µg/mL (≈ 5.44 µM) | – | 0.5 µg/mL (≈ 1.5 µM) | 4 µg/mL (≈ 12 µM) | 0.76 µg/mL (≈ 2.27 µM) | 45.2 µg/mL (≈ 135 µM) | 1.08 µg/mL (≈ 3.23 µM) | 3.01 µg/mL | – | C[C@@H](O)[C@H]1C(=O)N2C(C(=O)O)=C(SC[C@@H](N)C(=O)O)S[C@H]12
11.3 µg/mL (≈ 35.8 µM) | – | 9.67 µg/mL (≈ 30.6 µM) | 12.1 µg/mL (≈ 38.3 µM) | 55.7 µg/mL (≈ 176 µM) | 17.3 µg/mL | 3.4 µg/mL (≈ 10.7 µM) | 2.33 µg/mL (≈ 7.37 µM) | 64 µg/mL (≈ 202 µM) | 2 µg/mL (≈ 6.32 µM) | 8 µg/mL (≈ 25.3 µM) | 16 µg/mL (≈ 50.6 µM) | 90.5 µg/mL (≈ 286 µM) | 45.3 µg/mL (≈ 143 µM) | – | – | C[C@@H](O)[C@H]1C(=O)N2C(C(=O)O)=C(CC[C@H](N)C(=O)O)S[C@H]12
3.18 µg/mL (≈ 9.13 µM) | 19 µg/mL (≈ 54.6 µM) | 4 µg/mL (≈ 11.5 µM) | 4.93 µg/mL (≈ 14.2 µM) | 13.9 µg/mL (≈ 40 µM) | 6.4 µg/mL | 0.94 µg/mL (≈ 2.7 µM) | 0.707 µg/mL (≈ 2.03 µM) | 8 µg/mL (≈ 23 µM) | 0.5 µg/mL (≈ 1.44 µM) | 0.5 µg/mL (≈ 1.44 µM) | 10.1 µg/mL (≈ 28.9 µM) | 22.6 µg/mL (≈ 65 µM) | – | – | – | C[C@@H](O)[C@H]1C(=O)N2C(C(=O)O)=C(CSC[C@H](N)C(=O)O)S[C@H]12
5.04 µg/mL (≈ 19.5 µM) | – | 11.7 µg/mL (≈ 45.2 µM) | 9.85 µg/mL (≈ 38.1 µM) | 55.7 µg/mL (≈ 216 µM) | 14.3 µg/mL | 0.29 µg/mL (≈ 1.12 µM) | 0.229 µg/mL (≈ 0.887 µM) | 32 µg/mL (≈ 124 µM) | – | – | 10.1 µg/mL (≈ 39 µM) | – | 26.9 µg/mL (≈ 104 µM) | – | – | C[C@@H](N)C1=C(C(=O)O)N2C(=O)[C@H]([C@@H](C)O)[C@H]2S1
5.04 µg/mL (≈ 16.6 µM) | – | 12.4 µg/mL (≈ 40.9 µM) | 8.57 µg/mL (≈ 28.2 µM) | 97 µg/mL (≈ 319 µM) | 16.3 µg/mL | – | 0.26 µg/mL (≈ 0.854 µM) | 128 µg/mL (≈ 421 µM) | 0.5 µg/mL (≈ 1.64 µM) | 0.25 µg/mL (≈ 0.821 µM) | 20.2 µg/mL (≈ 66.2 µM) | 90.5 µg/mL (≈ 297 µM) | 22.6 µg/mL (≈ 74.3 µM) | – | 0.45 µg/mL (≈ 1.48 µM) | CSC[C@H](N)C1=C(C(=O)O)N2C(=O)[C@H]([C@@H](C)O)[C@H]2S1
0.794 µg/mL (≈ 2.61 µM) | – | 0.707 µg/mL (≈ 2.32 µM) | 0.595 µg/mL (≈ 1.95 µM) | 9.19 µg/mL (≈ 30.2 µM) | 1.33 µg/mL | 0.18 µg/mL (≈ 0.591 µM) | 0.099 µg/mL (≈ 0.325 µM) | 2 µg/mL (≈ 6.57 µM) | 0.125 µg/mL (≈ 0.411 µM) | 2 µg/mL (≈ 6.57 µM) | 2 µg/mL (≈ 6.57 µM) | 16 µg/mL (≈ 52.6 µM) | 2.83 µg/mL (≈ 9.3 µM) | – | – | CSC[C@@H](N)C1=C(C(=O)O)N2C(=O)[C@H]([C@@H](C)O)[C@H]2S1
4 µg/mL (≈ 12.6 µM) | – | 3.11 µg/mL (≈ 9.83 µM) | 3.73 µg/mL (≈ 11.8 µM) | 16 µg/mL (≈ 50.6 µM) | 5.4 µg/mL | 1 µg/mL (≈ 3.16 µM) | 0.735 µg/mL (≈ 2.32 µM) | 16 µg/mL (≈ 50.6 µM) | 0.25 µg/mL (≈ 0.79 µM) | 2 µg/mL (≈ 6.32 µM) | 6.35 µg/mL (≈ 20.1 µM) | 16 µg/mL (≈ 50.6 µM) | 13.4 µg/mL (≈ 42.5 µM) | – | – | C[C@@H](O)[C@H]1C(=O)N2C(C(=O)O)=C([C@H](N)CCC(=O)O)S[C@H]12
0.25 µg/mL (≈ 0.748 µM) | 4.8 µg/mL (≈ 14.4 µM) | 0.3 µg/mL (≈ 0.897 µM) | 0.35 µg/mL (≈ 1.05 µM) | 0.87 µg/mL (≈ 2.6 µM) | 0.57 µg/mL | 0.15 µg/mL (≈ 0.449 µM) | 0.11 µg/mL (≈ 0.329 µM) | 2 µg/mL (≈ 5.98 µM) | 0.06 µg/mL (≈ 0.179 µM) | – | 1.3 µg/mL (≈ 3.89 µM) | 5.7 µg/mL (≈ 17 µM) | – | – | – | C[C@@H](O)[C@H]1C(=O)N2C(C(=O)O)=C(SCCOC(N)=O)S[C@H]12 [Sch-34343]
10.1 µg/mL (≈ 39 µM) | – | 21.9 µg/mL (≈ 84.9 µM) | 17.1 µg/mL (≈ 66.4 µM) | 64 µg/mL (≈ 248 µM) | 24.6 µg/mL | 0.47 µg/mL (≈ 1.82 µM) | 0.26 µg/mL (≈ 1.01 µM) | 64 µg/mL (≈ 248 µM) | 1 µg/mL (≈ 3.87 µM) | 0.5 µg/mL (≈ 1.94 µM) | 20.2 µg/mL (≈ 78 µM) | 64 µg/mL (≈ 248 µM) | 45.3 µg/mL (≈ 175 µM) | – | – | C[C@H](N)C1=C(C(=O)O)N2C(=O)[C@H]([C@@H](C)O)[C@H]2S1
5.28 µg/mL (≈ 15.8 µM) | – | 6.46 µg/mL (≈ 19.3 µM) | 4 µg/mL (≈ 12 µM) | 42.7 µg/mL (≈ 128 µM) | 16 µg/mL | 4 µg/mL (≈ 12 µM) | 1.94 µg/mL (≈ 5.8 µM) | – | 2.83 µg/mL (≈ 8.46 µM) | 4 µg/mL (≈ 12 µM) | 16 µg/mL (≈ 47.9 µM) | 128 µg/mL (≈ 383 µM) | 17.3 µg/mL (≈ 51.7 µM) | – | – | C[C@@H](O)[C@H]1C(=O)N2C(C(=O)O)=C(SC[C@H](N)C(=O)O)S[C@H]12
3.18 µg/mL (≈ 13 µM) | 13.4 µg/mL (≈ 55.1 µM) | 5.15 µg/mL (≈ 21.1 µM) | 6.06 µg/mL (≈ 24.8 µM) | 8 µg/mL (≈ 32.8 µM) | 6.27 µg/mL | 0.28 µg/mL (≈ 1.15 µM) | 0.153 µg/mL (≈ 0.626 µM) | 4 µg/mL (≈ 16.4 µM) | 0.5 µg/mL (≈ 2.05 µM) | 0.5 µg/mL (≈ 2.05 µM) | 8 µg/mL (≈ 32.8 µM) | 32 µg/mL (≈ 131 µM) | – | – | – | C[C@@H](O)[C@H]1C(=O)N2C(C(=O)O)=C(CN)S[C@H]12
0.5 µg/mL (≈ 1.73 µM) | 5.7 µg/mL (≈ 19.8 µM) | 0.68 µg/mL (≈ 2.36 µM) | 0.81 µg/mL (≈ 2.81 µM) | 2.3 µg/mL (≈ 7.98 µM) | 1.2 µg/mL | 0.16 µg/mL (≈ 0.555 µM) | 0.12 µg/mL (≈ 0.416 µM) | 2 µg/mL (≈ 6.94 µM) | 0.06 µg/mL (≈ 0.208 µM) | – | 3.2 µg/mL (≈ 11.1 µM) | 5.7 µg/mL (≈ 19.8 µM) | – | – | – | C[C@@H](O)[C@H]1C(=O)N2C(C(=O)O)=C(COC(N)=O)S[C@H]12 [RITIPENEM]
10.1 µg/mL (≈ 31.7 µM) | – | 11.7 µg/mL (≈ 36.7 µM) | 12.1 µg/mL (≈ 38.1 µM) | 55.7 µg/mL (≈ 175 µM) | 17.6 µg/mL | 0.37 µg/mL (≈ 1.16 µM) | 0.214 µg/mL (≈ 0.672 µM) | 64.1 µg/mL (≈ 201 µM) | 4 µg/mL (≈ 12.6 µM) | 0.031 µg/mL (≈ 0.0974 µM) | 20.2 µg/mL (≈ 63.3 µM) | 64 µg/mL (≈ 201 µM) | 38.1 µg/mL (≈ 120 µM) | – | – | CSCC[C@H](N)C1=C(C(=O)O)N2C(=O)[C@H]([C@@H](C)O)[C@H]2S1
1 µg/mL (≈ 3.16 µM) | – | 2.42 µg/mL (≈ 7.65 µM) | 2.83 µg/mL (≈ 8.95 µM) | 18.4 µg/mL (≈ 58.1 µM) | 4 µg/mL | 2.7 µg/mL (≈ 8.54 µM) | 2.08 µg/mL (≈ 6.58 µM) | 16 µg/mL (≈ 50.6 µM) | 1.01 µg/mL (≈ 3.19 µM) | 4 µg/mL (≈ 12.6 µM) | 2.52 µg/mL (≈ 7.97 µM) | 45.3 µg/mL (≈ 143 µM) | 16 µg/mL (≈ 50.6 µM) | – | – | C[C@@H](O)[C@H]1C(=O)N2C(C(=O)O)=C(CC[C@@H](N)C(=O)O)S[C@H]12
